The values that follow are results of earlier work, collected in patent US20100047343A1, “MULTIPARTICULATE FORMULATION HAVING TRAMADOL IN IMMEDIATE AND CONTROLLED RELEASE FORM” (The University of Kansas, priority 2006, published 2010).

The conditions of series [1]: for accumulation: multiple dose treatment with tramadol HCl; for half-life: single oral dose of 100 mg.
For series [2] the following is noted: single oral dose of rapid release tramadol HCl (100 mg).
Where [3] appears, read: after oral administration of ULTRAM.

Counter-ions that a name gives are not always drawn. Like-named read-outs stand apart in the source and are kept apart here.

By half-life is commonly meant the time in which the quantity being followed falls by half. With `CN(C)C[C@H]1CCCC[C@]1(O)c1cccc(O)c1` [M1 derivative], in series [1], the accumulation result was “approximately 2 fold” and the half-life is 9 h.

For orientation: bioavailability means dose-corrected exposure relative to a reference, in per cent. As for `COc1cccc(C2(O)CCCCC2CN(C)C)c1` (centres unmarked) [tramadol HCl], in series [1] (setting [3]), the bioavailability is 68% and the “time to peak serum concentrations” value is ≤ 2 h. Besides, in series [2], the “duration of the analgesic effect” value was “about 6 hours”. In addition, the solubility in water (24° C.) was 790 mg/mL. Also, under “37° C.”, the “density of saturated solution” value was 1.1079, the solubility in water was 840 mg/mL and the “viscosity (sat'd. sol.)” value is recorded as 86.5 cp.

With `COc1cccc(C2(O)CCCCC2CN(C)C)c1` (centres unmarked) [tramadol], in series [1], the accumulation result is given as “approximately 2 fold” and the half-life is 5.1 h.
